From patent US20220089663A1, “PROTEINS AND FLUOROPHORE-CONTAINING COMPOUNDS SELECTIVE FOR NaV1.7” (MEMORIAL SLOAN KETTERING CANCER CENTER, priority 2019, published 2022)

Assays:
[1] = molecular target: T1, hNav1.1 (Homo sapiens, UniProt P35498); assay: automated whole-cell patch clamp (QPatch 16X), HEK293-hNav1.1; type: cell-based; conditions: HEK293 cells stably expressing human channel; read-out: IC50 Nav1.1
T1 construct: host or cells: HEK293

[2] = molecular target: T2, hNav1.2 (Homo sapiens, UniProt Q99250); assay: automated whole-cell patch clamp (QPatch 16X), HEK293-hNav1.2; type: cell-based; conditions: HEK293 cells stably expressing human channel; read-out: IC50 Nav1.2
T2 construct: host or cells: HEK293

[3] = molecular target: T3, hNav1.3 (Homo sapiens, UniProt Q9NY46); assay: automated whole-cell patch clamp (QPatch 16X), HEK293-hNav1.3; type: cell-based; conditions: HEK293 cells stably expressing human channel; read-out: IC50 Nav1.3
T3 construct: host or cells: HEK293

[4] = molecular target: T4, hNav1.4 (Homo sapiens, UniProt P35499); assay: automated whole-cell patch clamp (QPatch 16X), HEK293-hNav1.4; type: cell-based; conditions: HEK293 cells stably expressing human channel; read-out: IC50 Nav1.4
T4 construct: host or cells: HEK293

[5] = molecular target: T5, hNav1.5 (Homo sapiens, UniProt Q14524); assay: automated whole-cell patch clamp (QPatch 16X), HEK293-hNav1.5; type: cell-based; conditions: HEK293 cells stably expressing human channel; read-out: IC50 Nav1.5
T5 construct: host or cells: HEK293

[6] = molecular target: T6, hNav1.6 (Homo sapiens, UniProt Q9UQD0); assay: automated whole-cell patch clamp (QPatch 16X), HEK293-hNav1.6; type: cell-based; conditions: HEK293 cells stably expressing human channel; read-out: IC50 Nav1.6
T6 construct: host or cells: HEK293

[7] = molecular target: T7, hNav1.7 (Homo sapiens, UniProt Q15858); assay: automated whole-cell patch clamp (QPatch 16X), HEK293-hNav1.7; type: cell-based; conditions: HEK293 cells stably expressing human channel; read-out: IC50 Nav1.7
T7 construct: host or cells: HEK293

[8] = tested on: mouse sciatic nerves; assay: epifluorescence imaging (IVIS Spectrum) of sciatic nerves and organs 30 min after injection; type: in vivo; conditions: 30 min
Procedure: Animal Model. Female athymic nude mice (4-8 week-old, athymic-Nude (outbred) (Stock #: 088; Envigo, USA) were allowed to acclimatize at the Memorial Sloan Kettering Cancer Center (MSK) vivarium for 1 week with ad libitum food and water prior to the experimental procedure. For imaging experiments, animals were sacrificed 30 min post-tail vein injection of Hs1a-FL, Hs1a/Hs1a-FL, Hsp1a-FL, Hsp1a/Hsp1a-FL, or PBS. All animal experiments were performed in accordance with institutional guidelines and approved by the IACUC of MSK, following NIH guidelines for animal welfare.
Epifluorescence Imaging. Animals were intravenously injected with Hsp1a-FL (7 nmol, 68 μM of Hsp1a-FL in 100 μL of PBS, n=9), or Hs1a-FL (4 nmol, 45 μM of Hs1a-FL in 100 μL of PBS, n=3). To assess the specificity of the Hsp1a-FL or Hs1a-FL accumulation, animals were injected with a combination of Hsp1a and Hsp1a-FL (Hsp1a-FL, 68 μM, 7 nmol and Hsp1a 204 μM, 21 nmol in 100 μL PBS, n=9), Hs1a and Hs1a-FL (Hs1a-FL, 45 μM, 4 nmol and Hs1a, 120 μM, 12 nmol in 100 μL PBS, n=3) or PBS (n=9). Animals were sacrificed 30 min post-injection and epifluorescence images obtained. Epifluorescence images of the right sciatic nerve (RSN) and the left sciatic nerve (LSN) were obtained in situ. Epifluorescence of the biodistribution of the peptides in excited RSN, LSN, muscle, heart, kidney, liver, and brain were acquired with IVIS Spectrum (PerkinElmer) using a predefined GFP filterset (e.g., excitation=465/30 nm, emission=520-580 nm) based on the particular fluorophore employed in the compounds. Autofluorescence was removed through spectral unmixing. Semiquantitative analysis of the Hsp1a-FL or Hs1a-FL signal was conducted by measuring the average radiant efficiency (in units of unit [p/s/cm^2/sr]/[μW/cm^2]) in regions of interest (ROIs) that were placed on all resected organs under white light guidance.

[9] = tested on: mouse sciatic nerves; assay: confocal microscopy / histology of sciatic nerve sections after injection; type: in vivo; conditions: 30 min
Procedure: Confocal Microscopy. 5 or 10 μm cryosections of OCT-embedded sciatic nerve tissues from mice intravenously injected with Hsp1a-FL (7 nmol, 68 μM of Hsp1a-FL in 100 μL of PBS), Hsp1a/Hsp1a-FL (Hsp1a-FL, 68 μM, 7 nmol, and Hsp1a 204 μM, 21 nmol in 100 μL PBS), Hs1a-FL (4 nmol, 45 μM of Hs1a-FL in 100 μL of PBS), with the block Hs1a/Hs1a-FL (Hs1a-FL, 45 μM, 4 nmol and Hs1a 120 μM, 12 nmol in 100 μL PBS) or PBS were used to determine the distribution and localization of fluorescently-tagged peptide. Animal organs were incubated with Hoechst 33342 (blue, 20 μM, 1 nmol in 50 μL of PBS) to counterstain nuclei before embedding in Mowiol mounting medium. Fresh tissue samples were counterstained with 33342 (blue, 20 μM, 1 nmol in 50 μL of PBS) up to 90 min post-mortem and placed directly on a microscope slide for imaging.

[10] = molecular target: hERG (Homo sapiens, UniProt Q12809); assay: Hs1a off-target voltage-gated potassium channel, hERG; type: cell-based
Procedure: Hs1a was isolated from the venom of the Chinese bird spider, Haplopelma schmidti. To assess the selectivity of Hs1a for Nav channel subtypes, Hs1a was tested on HEK cells stably transfected with human Nav1.1-Nav1.7 channels using automated patch clamp techniques. […] The IC50 value for hNav1.7 obtained in mammalian cells correlates with the IC50 obtained by two-electrode voltage clamp on hNav1.7 expressed in X. laevis oocytes. The selectivity of Hs1a for off-target voltage-gated calcium and potassium channels were also tested.

[11] = 4 nmol plus 12 nmol unmodified Hs1a

T5 sequence (Q14524 whole entry): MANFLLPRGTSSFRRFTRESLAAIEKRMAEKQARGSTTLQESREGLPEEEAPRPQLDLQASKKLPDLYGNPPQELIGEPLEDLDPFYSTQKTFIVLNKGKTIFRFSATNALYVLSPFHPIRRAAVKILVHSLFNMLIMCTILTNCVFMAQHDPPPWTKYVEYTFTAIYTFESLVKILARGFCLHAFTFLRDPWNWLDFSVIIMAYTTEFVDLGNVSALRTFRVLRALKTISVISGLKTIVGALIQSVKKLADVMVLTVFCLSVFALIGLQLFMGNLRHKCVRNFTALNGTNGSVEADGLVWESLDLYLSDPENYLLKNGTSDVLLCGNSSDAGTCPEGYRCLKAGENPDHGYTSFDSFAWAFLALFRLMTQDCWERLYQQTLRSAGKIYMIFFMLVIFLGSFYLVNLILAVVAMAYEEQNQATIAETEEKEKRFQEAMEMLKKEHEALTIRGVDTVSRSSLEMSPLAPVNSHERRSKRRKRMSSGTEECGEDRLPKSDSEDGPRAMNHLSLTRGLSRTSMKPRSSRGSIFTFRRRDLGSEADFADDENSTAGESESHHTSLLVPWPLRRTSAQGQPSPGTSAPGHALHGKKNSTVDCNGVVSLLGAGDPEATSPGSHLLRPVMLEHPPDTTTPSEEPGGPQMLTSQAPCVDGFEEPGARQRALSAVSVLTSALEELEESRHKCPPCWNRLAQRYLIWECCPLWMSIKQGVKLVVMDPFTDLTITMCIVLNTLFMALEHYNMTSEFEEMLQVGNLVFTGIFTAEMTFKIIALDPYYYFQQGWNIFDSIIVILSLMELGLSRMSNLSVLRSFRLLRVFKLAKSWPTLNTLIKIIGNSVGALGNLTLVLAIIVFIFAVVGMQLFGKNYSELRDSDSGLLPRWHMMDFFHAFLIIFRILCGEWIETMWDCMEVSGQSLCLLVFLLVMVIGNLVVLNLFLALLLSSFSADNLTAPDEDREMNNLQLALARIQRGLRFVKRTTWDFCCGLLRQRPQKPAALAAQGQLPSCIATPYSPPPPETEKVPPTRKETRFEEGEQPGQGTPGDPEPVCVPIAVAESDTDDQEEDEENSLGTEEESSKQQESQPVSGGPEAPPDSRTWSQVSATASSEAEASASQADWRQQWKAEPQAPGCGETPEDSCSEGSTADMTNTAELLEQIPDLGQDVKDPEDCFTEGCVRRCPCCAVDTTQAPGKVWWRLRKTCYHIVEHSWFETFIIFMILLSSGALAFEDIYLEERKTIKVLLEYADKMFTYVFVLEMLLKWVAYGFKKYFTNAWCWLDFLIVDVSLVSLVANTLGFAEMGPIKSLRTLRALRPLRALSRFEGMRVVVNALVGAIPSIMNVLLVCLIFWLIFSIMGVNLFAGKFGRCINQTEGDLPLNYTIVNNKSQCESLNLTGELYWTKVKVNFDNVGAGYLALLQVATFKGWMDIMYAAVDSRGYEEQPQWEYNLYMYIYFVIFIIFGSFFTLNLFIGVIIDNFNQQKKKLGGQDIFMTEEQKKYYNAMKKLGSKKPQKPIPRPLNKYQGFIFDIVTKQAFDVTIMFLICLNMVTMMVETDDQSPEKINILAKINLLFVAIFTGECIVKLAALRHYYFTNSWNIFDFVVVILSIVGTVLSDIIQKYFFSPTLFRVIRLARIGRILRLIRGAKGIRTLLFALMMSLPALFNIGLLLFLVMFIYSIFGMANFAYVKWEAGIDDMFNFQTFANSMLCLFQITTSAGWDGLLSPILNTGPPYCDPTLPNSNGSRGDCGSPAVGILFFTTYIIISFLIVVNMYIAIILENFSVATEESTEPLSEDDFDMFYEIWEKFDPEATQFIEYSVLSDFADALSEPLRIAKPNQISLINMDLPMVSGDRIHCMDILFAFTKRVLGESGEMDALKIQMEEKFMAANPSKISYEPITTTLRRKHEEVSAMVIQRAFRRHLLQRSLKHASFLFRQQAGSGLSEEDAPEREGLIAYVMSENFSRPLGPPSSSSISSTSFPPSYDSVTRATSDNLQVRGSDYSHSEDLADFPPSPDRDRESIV
T4 sequence (P35499 whole entry): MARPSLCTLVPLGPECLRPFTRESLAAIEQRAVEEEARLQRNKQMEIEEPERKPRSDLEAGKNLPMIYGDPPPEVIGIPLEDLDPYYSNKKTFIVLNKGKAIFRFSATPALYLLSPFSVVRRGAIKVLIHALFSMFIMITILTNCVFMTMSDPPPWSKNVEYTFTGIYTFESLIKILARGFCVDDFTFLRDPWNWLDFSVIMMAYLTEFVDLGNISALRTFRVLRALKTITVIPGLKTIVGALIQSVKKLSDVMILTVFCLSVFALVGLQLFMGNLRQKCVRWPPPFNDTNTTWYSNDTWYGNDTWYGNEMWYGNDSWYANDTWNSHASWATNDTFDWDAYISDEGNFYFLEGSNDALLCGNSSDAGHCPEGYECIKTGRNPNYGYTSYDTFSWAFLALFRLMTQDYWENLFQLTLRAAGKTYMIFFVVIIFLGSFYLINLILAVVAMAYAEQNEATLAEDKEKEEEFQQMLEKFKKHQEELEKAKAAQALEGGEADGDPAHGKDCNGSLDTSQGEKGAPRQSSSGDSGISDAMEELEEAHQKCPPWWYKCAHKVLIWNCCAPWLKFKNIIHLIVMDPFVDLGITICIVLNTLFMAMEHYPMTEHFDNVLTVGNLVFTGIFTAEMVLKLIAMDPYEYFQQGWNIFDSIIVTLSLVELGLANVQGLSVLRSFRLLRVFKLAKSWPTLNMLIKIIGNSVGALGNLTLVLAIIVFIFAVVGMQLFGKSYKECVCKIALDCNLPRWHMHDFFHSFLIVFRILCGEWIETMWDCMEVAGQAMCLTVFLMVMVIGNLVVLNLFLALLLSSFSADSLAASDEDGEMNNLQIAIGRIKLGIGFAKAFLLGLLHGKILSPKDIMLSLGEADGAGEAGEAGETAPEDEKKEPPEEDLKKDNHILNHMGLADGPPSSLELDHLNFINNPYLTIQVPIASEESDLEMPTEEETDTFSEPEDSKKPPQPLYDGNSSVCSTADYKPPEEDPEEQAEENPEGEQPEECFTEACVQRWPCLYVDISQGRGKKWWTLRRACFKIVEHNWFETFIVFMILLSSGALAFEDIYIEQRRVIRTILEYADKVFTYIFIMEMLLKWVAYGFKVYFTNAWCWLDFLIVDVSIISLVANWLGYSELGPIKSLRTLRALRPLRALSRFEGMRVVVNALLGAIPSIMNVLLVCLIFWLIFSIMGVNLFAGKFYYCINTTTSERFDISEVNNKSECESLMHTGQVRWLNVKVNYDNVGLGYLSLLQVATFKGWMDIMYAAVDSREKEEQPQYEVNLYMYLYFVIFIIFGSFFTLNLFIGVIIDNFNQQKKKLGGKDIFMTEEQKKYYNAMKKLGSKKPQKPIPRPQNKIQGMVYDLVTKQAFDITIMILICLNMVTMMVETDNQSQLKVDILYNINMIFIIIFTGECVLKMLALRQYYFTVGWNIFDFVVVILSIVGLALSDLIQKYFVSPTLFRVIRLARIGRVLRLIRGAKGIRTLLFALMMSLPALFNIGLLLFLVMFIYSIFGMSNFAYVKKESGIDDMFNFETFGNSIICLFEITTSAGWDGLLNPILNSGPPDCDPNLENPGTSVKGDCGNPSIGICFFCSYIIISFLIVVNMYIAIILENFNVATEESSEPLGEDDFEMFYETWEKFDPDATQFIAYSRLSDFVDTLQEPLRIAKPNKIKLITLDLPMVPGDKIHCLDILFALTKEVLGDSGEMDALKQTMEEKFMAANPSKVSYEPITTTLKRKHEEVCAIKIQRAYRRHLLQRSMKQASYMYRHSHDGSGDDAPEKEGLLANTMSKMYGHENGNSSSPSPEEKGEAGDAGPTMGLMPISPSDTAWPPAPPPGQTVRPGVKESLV
T4 sequence (Q07699 19-218, further chain): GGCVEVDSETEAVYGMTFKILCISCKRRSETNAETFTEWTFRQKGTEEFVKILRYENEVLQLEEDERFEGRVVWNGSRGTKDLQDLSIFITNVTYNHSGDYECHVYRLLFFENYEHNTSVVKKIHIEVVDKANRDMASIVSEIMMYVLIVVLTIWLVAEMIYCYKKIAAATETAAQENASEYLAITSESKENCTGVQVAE

| Compound | IC50 [1] [nM] | IC50 [2] [nM] | IC50 [3] [nM] | IC50 [4] [nM] | IC50 [5] [nM] | IC50 [6] [nM] | IC50 [7] [nM] | radiant efficiency, resected sciatic nerves ([8]; 4 nmol i.v. alone) | radiant efficiency, brain ([8]; 4 nmol i.v.) | radiant efficiency, kidney ([8]; 4 nmol i.v.) | radiant efficiency, liver ([8]; 4 nmol i.v.) | radiant efficiency, spleen ([8]; 4 nmol i.v.) | radiant efficiency, resected sciatic nerves, co-injection (blocking) [8, 11] | signal in sciatic nerve sections ([9]; 4 nmol i.v. alone) | signal in sciatic nerve sections, blocked mice [9, 11] | IC50 [10] [nM] |
| --- | --- | --- | --- | --- | --- | --- | --- | --- | --- | --- | --- | --- | --- | --- | --- | --- |
| CC(C)C[C@H](NC(=O)[C@H](CCCCN)NC(=O)CNC(=O)[C@H](CCCCN)NC(=O)[C@@H]1CSSC[C@@H]2NC(=O)[C@H](CCCCN)NC(=O)[C@H](CC(=O)O)NC(=O)[C@H](CC(N)=O)NC(=O)[C@H](CCCCNC(=O)CCCCC[N+]3=C(/C=C/C4=CC(=C/C=C5/N(C)c6ccc7ccccc7c6C5(C)C)/CCC4)C(C)(C)c4c3ccc3ccccc43)NC(=O)[C@@H]3CCCN3C(=O)[C@H](CC(N)=O)NC(=O)[C@@H]3CSSC[C@H](NC(=O)[C@H](C(C)C)NC(=O)[C@H](CC(C)C)NC(=O)[C@H](CC(N)=O)NC(=O)[C@H](C)NC(=O)[C@H](CSSC[C@H](NC(=O)[C@H](CC(=O)O)NC(=O)[C@H](CC(N)=O)NC(=O)CN)C(=O)N[C@@H](CC(C)C)C(=O)NCC(=O)N[C@@H](Cc4ccccc4)C(=O)N[C@@H](Cc4c[nH]c5ccccc45)C(=O)N[C@@H](CO)C(=O)N[C@@H](C)C(=O)N3)NC2=O)C(=O)N[C@@H](CO)C(=O)N[C@@H](CO)C(=O)N[C@@H](CCCCN)C(=O)N[C@@H](Cc2c[nH]cn2)C(=O)N[C@@H](CCCCN)C(=O)N[C@@H](Cc2c[nH]c3ccccc23)C(=O)N1)C(=O)O [Hs1a-FL] | 19.4 | 81.2 | 107 | > 3000 | > 3000 | 19.2 | 26.9 | 1.6±0.3×10^5 [p/s/cm^2/sr]/[μW/cm^2] | 0.2±0.1×10^7 [p/s/cm^2/sr]/[μW/cm^2] | 1.4±1.1×10^7 [p/s/cm^2/sr]/[μW/cm^2] | 3.0±2.0×10^7 [p/s/cm^2/sr]/[μW/cm^2] | 0.8±0.5×10^7 [p/s/cm^2/sr]/[μW/cm^2] | 0.09±0.03×10^5 [p/s/cm^2/sr]/[μW/cm^2] | confirmed the presence of Hs1a-FL signal | No signal was detected |  |
| CC(C)C[C@H](NC(=O)[C@H](CCCCN)NC(=O)CNC(=O)[C@H](CCCCN)NC(=O)[C@@H]1CSSC[C@@H]2NC(=O)[C@H](CCCCN)NC(=O)[C@H](CC(=O)O)NC(=O)[C@H](CC(N)=O)NC(=O)[C@H](CCCCN)NC(=O)[C@@H]3CCCN3C(=O)[C@H](CC(N)=O)NC(=O)[C@@H]3CSSC[C@H](NC(=O)[C@H](C(C)C)NC(=O)[C@H](CC(C)C)NC(=O)[C@H](CC(N)=O)NC(=O)[C@H](C)NC(=O)[C@H](CSSC[C@H](NC(=O)[C@H](CC(=O)O)NC(=O)[C@H](CC(N)=O)NC(=O)CN)C(=O)N[C@@H](CC(C)C)C(=O)NCC(=O)N[C@@H](Cc4ccccc4)C(=O)N[C@@H](Cc4c[nH]c5ccccc45)C(=O)N[C@@H](CO)C(=O)N[C@@H](C)C(=O)N3)NC2=O)C(=O)N[C@@H](CO)C(=O)N[C@@H](CO)C(=O)N[C@@H](CCCCN)C(=O)N[C@@H](Cc2c[nH]cn2)C(=O)N[C@@H](CCCCN)C(=O)N[C@@H](Cc2c[nH]c3ccccc23)C(=O)N1)C(=O)O [Hs1a] |  |  |  |  |  |  |  |  |  |  |  |  |  |  |  | > 3000 |
